In ChEMBL document CHEMBL4706512, “Design, synthesis and antitumor activity of novel thiophene-pyrimidine derivatives as EGFR inhibitors overcoming T790M and L858R/T790M mutations” (Eur J Med Chem, 2020):
pIC50: −log10 of the molar value. Active and inactive are the calls of the source. The calls are words filed in the database; no cut-off is given here.

Columns and labels:
[1] = biological target: T1, Epidermal growth factor receptor (Homo sapiens, UniProt P00533); experiment: Inhibition of wild type EGFR (unknown origin) using FAM-labelled peptide as substrate at 1 uM incubated for 10 mins in presence of ATP measured by mobility shift assay
Homo sapiens [2] = organism: Homo sapiens; experiment: Inhibition of EGFR T790M/L858R double mutant (unknown origin) using FAM-labelled peptide as substrate at 1 uM incubated for 10 mins in presence of ATP measured by mobility shift assay
Homo sapiens [3] = organism: Homo sapiens; experiment: Inhibition of EGFR T790M mutant (unknown origin) using FAM-labelled peptide as substrate at 1 uM incubated for 10 mins in presence of ATP measured by mobility shift assay
[4] = biological target: Vascular endothelial growth factor receptor 2 (Homo sapiens) (UniProt P35968); experiment: Inhibition of KDR (unknown origin) using FAM-labelled peptide as substrate at 1 uM incubated for 10 mins in presence of ATP measured by mobility shift assay
[5] = biological target: Hepatocyte growth factor receptor (Homo sapiens) (UniProt P08581); experiment: Inhibition of c-MET (unknown origin) using FAM-labelled peptide as substrate at 1 uM incubated for 10 mins in presence of ATP measured by mobility shift assay
MCF7 = experiment: Antiproliferative activity against human MCF7 cells assessed as inhibition of cell proliferation measured after 72 hrs by MTT assay; format: functional, cell-based; conditions: MCF7, 72 h
HeLa = experiment: Antiproliferative activity against human HeLa cells assessed as inhibition of cell proliferation measured after 72 hrs by MTT assay; format: functional, cell-based
A-431 [6] = experiment: Antiproliferative activity against human A-431 cells assessed as inhibition of cell proliferation measured after 72 hrs by MTT assay; format: functional, cell-based; conditions: A-431, 72 h
A549 = experiment: Antiproliferative activity against human A549 cells assessed as inhibition of cell proliferation measured after 72 hrs by MTT assay; format: functional, cell-based; conditions: A549, 72 h
[7] = biological target: Serine/threonine-protein kinase mTOR (Homo sapiens) (UniProt P42345); experiment: Inhibition of mTOR (unknown origin) using FAM-labelled peptide as substrate at 1 uM incubated for 10 mins in presence of ATP measured by mobility shift assay
Homo sapiens [8] = organism: Homo sapiens; experiment: Inhibition of PI3K (unknown origin) using FAM-labelled peptide as substrate at 1 uM incubated for 10 mins in presence of ATP measured by mobility shift assay
L02 = experiment: Cytotoxicity against human L02 cells assessed as inhibition of cell proliferation measured after 72 hrs by MTT assay; format: cell-based; conditions: L02, 72 h
NCI-H1975 [9] = experiment: Antiproliferative activity against human NCI-H1975 cells harboring EGFR T790M/L858R double mutant assessed as inhibition of cell viability at 10 uM measured after 72 hrs by MTT assay; format: functional
NCI-H1975 [10] = experiment: Antiproliferative activity against human NCI-H1975 cells harboring EGFR T790M/L858R double mutant assessed as inhibition of cell viability at 1 uM measured after 72 hrs by MTT assay; format: functional
NCI-H1975 [11] = experiment: Antiproliferative activity against human NCI-H1975 cells harboring EGFR T790M/L858R double mutant assessed as inhibition of cell viability measured after 72 hrs by MTT assay; format: functional, cell-based; conditions: NCI-H1975, 72 h
[12] = Inhibition of EGFR T790M mutant (unknown origin) using FAM-labelled peptide as substrate incubated for 10 mins in presence of ATP measured by mobility shift assay; set-up: species or system Homo sapiens
[13] = Inhibition of EGFR T790M/L858R double mutant (unknown origin) using FAM-labelled peptide as substrate incubated for 10 mins in presence of ATP measured by mobility shift assay; set-up: species or system Homo sapiens
[14] = biological target: T1, Epidermal growth factor receptor; experiment: Inhibition of wild type EGFR (unknown origin) using FAM-labelled peptide as substrate incubated for 10 mins in presence of ATP measured by mobility shift assay
Homo sapiens [15] = organism: Homo sapiens; experiment: Selectivity ratio of IC50 for wild type EGFR (unknown origin) to IC50 for EGFR T790M mutant (unknown origin) measured by mobility shift assay
Homo sapiens [16] = organism: Homo sapiens; experiment: Selectivity ratio of IC50 for wild type EGFR (unknown origin) to IC50 for EGFR T790M/L858R double mutant (unknown origin) measured by mobility shift assay
A-431 [17] = experiment: Antiproliferative activity against human A-431 cells assessed as inhibition of cell proliferation at 0.33 uM measured after 6 hrs by Acridine orange staining based fluorescence microscopy; format: functional
A-431 [18] = experiment: Induction of apoptosis in human A-431 cells assessed as viable cells at 0.2 uM measured after 48 hrs by Annexin V-FITC staining based flow cytometry (reference value: 95.67%); format: functional; conditions: read-out: Activity
A-431 [19] = experiment: Induction of apoptosis in human A-431 cells assessed as early apoptotic cells at 0.2 uM measured after 48 hrs by Annexin V-FITC staining based flow cytometry (reference value: 2.1%); format: functional
A-431 [20] = experiment: Induction of apoptosis in human A-431 cells assessed as late apoptotic cells at 0.2 uM measured after 48 hrs by Annexin V-FITC staining based flow cytometry (reference value: 2.02%); format: functional
A-431 [21] = experiment: Induction of apoptosis in human A-431 cells assessed as necrotic cells at 0.2 uM measured after 48 hrs by Annexin V-FITC staining based flow cytometry (reference value: 0.21%); format: functional
A-431 [22] = experiment: Induction of apoptosis in human A-431 cells assessed as viable cells at 4 uM measured after 48 hrs by Annexin V-FITC staining based flow cytometry (reference value: 95.67%); format: functional; conditions: read-out: Activity
A-431 [23] = experiment: Induction of apoptosis in human A-431 cells assessed as early apoptotic cells at 4 uM measured after 48 hrs by Annexin V-FITC staining based flow cytometry (reference value: 2.1%); format: functional
A-431 [24] = experiment: Induction of apoptosis in human A-431 cells assessed as late apoptotic cells at 4 uM measured after 48 hrs by Annexin V-FITC staining based flow cytometry (reference value: 2.02%); format: functional
A-431 [25] = experiment: Induction of apoptosis in human A-431 cells assessed as necrotic cells at 4 uM measured after 48 hrs by Annexin V-FITC staining based flow cytometry (reference value: 0.21%); format: functional
A-431 [26] = experiment: Induction of apoptosis in human A-431 cells assessed as viable cells at 8 uM measured after 48 hrs by Annexin V-FITC staining based flow cytometry (reference value: 95.67%); format: functional; conditions: read-out: Activity
A-431 [27] = experiment: Induction of apoptosis in human A-431 cells assessed as early apoptotic cells at 8 uM measured after 48 hrs by Annexin V-FITC staining based flow cytometry (reference value: 2.1%); format: functional
A-431 [28] = experiment: Induction of apoptosis in human A-431 cells assessed as late apoptotic cells at 8 uM measured after 48 hrs by Annexin V-FITC staining based flow cytometry (reference value: 2.02%); format: functional
A-431 [29] = experiment: Induction of apoptosis in human A-431 cells assessed as necrotic cells at 8 uM measured after 48 hrs by Annexin V-FITC staining based flow cytometry (reference value: 0.21%); format: functional
A-431 [30] = experiment: Induction of cell morphological changes in human A-431 cells assessed as chromatin contraction with sharp cell edge at 0.33 uM measured after 6 hrs by Acridine orange staining based fluorescence microscopy; format: functional
A-431 [31] = experiment: Induction of apoptosis in human A-431 cells assessed as viable cells at 5 uM measured after 48 hrs by Annexin V-FITC staining based flow cytometry (reference value: 95.67%); format: functional; conditions: read-out: Activity
A-431 [32] = experiment: Induction of apoptosis in human A-431 cells assessed as early apoptotic cells at 5 uM measured after 48 hrs by Annexin V-FITC staining based flow cytometry (reference value: 2.1%); format: functional
A-431 [33] = experiment: Induction of apoptosis in human A-431 cells assessed as late apoptotic cells at 5 uM measured after 48 hrs by Annexin V-FITC staining based flow cytometry (reference value: 2.02%); format: functional
A-431 [34] = experiment: Induction of apoptosis in human A-431 cells assessed as necrotic cells at 5 uM measured after 48 hrs by Annexin V-FITC staining based flow cytometry (reference value: 0.21%); format: functional

T1 sequence (P00533 whole entry): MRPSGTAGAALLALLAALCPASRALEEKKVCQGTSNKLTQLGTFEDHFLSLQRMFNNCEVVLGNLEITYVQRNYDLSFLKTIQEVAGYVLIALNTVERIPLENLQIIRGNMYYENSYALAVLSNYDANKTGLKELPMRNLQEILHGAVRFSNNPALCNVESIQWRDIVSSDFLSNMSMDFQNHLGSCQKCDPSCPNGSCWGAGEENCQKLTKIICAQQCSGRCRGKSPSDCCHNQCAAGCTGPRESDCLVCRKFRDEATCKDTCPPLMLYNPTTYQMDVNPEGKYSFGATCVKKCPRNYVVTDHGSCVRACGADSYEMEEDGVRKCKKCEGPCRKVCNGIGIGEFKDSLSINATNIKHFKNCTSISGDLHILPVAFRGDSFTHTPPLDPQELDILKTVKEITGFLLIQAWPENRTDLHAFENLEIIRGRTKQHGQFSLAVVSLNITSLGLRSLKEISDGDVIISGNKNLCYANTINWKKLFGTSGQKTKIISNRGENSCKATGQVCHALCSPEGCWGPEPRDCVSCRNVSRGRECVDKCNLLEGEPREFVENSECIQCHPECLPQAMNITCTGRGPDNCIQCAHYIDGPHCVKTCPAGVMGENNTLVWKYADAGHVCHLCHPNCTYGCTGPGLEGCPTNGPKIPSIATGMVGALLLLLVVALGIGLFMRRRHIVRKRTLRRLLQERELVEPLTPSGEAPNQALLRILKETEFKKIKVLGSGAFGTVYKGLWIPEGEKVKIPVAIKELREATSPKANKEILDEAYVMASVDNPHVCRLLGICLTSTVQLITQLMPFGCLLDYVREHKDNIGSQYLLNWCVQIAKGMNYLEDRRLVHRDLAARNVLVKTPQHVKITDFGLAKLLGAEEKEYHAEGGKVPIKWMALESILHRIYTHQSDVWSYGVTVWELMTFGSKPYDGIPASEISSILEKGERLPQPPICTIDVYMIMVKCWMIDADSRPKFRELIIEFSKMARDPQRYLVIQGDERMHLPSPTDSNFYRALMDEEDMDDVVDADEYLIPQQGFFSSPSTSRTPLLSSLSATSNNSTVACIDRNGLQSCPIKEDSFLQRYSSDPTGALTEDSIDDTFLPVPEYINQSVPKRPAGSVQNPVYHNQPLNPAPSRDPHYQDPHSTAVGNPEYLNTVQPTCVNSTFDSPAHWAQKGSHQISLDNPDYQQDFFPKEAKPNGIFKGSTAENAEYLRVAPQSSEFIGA
Sequence of Vascular endothelial growth factor receptor 2 (Homo sapiens) (P35968 whole entry): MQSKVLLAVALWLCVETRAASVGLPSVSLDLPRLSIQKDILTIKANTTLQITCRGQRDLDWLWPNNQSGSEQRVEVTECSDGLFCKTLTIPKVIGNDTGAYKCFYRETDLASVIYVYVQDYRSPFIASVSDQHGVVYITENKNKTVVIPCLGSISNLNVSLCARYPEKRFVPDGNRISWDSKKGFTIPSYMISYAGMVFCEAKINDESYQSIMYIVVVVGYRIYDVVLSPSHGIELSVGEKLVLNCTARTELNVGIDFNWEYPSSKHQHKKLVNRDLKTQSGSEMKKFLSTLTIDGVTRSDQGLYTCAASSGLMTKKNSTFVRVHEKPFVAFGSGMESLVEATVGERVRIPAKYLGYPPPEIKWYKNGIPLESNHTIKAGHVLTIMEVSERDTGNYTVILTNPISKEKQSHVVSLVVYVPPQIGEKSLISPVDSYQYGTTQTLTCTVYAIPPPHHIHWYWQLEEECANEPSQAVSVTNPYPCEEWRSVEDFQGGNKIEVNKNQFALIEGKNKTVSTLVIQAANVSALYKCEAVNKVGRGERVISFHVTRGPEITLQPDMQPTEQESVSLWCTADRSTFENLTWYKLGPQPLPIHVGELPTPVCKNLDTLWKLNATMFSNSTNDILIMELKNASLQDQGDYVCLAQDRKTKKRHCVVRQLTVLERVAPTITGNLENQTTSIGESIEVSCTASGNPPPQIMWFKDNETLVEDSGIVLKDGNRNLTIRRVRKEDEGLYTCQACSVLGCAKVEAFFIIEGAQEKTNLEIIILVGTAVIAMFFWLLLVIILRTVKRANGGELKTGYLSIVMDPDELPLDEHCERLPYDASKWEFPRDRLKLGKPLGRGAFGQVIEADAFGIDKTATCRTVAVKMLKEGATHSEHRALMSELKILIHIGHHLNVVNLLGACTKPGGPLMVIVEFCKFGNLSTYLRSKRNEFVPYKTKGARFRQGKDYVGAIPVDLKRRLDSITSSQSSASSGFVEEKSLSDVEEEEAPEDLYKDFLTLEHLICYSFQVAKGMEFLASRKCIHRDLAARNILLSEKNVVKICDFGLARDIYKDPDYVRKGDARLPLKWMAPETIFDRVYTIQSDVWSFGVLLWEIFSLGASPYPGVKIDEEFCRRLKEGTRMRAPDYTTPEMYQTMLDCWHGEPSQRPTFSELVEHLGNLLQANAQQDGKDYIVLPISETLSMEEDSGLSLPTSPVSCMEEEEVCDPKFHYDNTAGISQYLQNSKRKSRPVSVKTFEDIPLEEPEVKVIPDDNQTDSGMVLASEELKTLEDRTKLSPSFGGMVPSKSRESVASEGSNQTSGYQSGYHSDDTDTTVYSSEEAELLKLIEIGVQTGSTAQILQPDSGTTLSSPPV
Sequence of Hepatocyte growth factor receptor (Homo sapiens) (P08581 whole entry): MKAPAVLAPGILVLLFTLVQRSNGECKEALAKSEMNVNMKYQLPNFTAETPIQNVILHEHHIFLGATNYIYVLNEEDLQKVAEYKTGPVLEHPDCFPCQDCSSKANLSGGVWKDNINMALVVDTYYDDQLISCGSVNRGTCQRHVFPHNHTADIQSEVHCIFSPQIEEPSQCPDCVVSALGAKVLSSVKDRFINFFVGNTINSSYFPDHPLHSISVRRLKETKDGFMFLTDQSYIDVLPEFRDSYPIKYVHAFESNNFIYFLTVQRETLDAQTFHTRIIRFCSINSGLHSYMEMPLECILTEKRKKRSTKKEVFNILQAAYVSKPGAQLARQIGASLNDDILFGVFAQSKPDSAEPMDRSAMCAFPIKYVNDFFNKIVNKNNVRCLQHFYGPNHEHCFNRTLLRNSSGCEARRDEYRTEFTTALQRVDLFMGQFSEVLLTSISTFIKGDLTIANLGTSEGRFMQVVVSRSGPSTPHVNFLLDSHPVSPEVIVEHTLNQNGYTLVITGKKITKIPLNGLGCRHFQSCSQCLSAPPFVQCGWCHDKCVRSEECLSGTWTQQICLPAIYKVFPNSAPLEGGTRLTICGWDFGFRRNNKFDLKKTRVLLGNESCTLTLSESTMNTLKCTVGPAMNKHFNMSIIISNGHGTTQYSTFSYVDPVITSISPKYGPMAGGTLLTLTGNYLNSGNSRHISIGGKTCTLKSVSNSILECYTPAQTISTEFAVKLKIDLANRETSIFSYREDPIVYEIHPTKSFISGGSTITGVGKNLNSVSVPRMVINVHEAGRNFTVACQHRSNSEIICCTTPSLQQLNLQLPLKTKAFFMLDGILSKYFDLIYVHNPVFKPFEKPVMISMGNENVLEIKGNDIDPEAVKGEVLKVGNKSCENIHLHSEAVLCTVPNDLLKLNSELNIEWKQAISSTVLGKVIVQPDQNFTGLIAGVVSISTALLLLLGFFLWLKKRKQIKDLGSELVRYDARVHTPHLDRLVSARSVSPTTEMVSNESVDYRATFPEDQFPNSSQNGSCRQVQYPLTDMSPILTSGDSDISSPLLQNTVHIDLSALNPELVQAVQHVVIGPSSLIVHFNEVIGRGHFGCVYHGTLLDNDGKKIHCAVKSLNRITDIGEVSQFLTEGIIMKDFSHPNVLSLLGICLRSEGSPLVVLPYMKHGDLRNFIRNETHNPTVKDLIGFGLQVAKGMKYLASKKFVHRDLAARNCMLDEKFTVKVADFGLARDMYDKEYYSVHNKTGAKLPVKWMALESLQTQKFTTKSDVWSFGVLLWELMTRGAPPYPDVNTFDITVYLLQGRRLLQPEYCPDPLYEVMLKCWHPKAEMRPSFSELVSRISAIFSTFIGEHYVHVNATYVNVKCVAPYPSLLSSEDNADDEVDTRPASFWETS

Row | inhibition [1] | inhibition (Homo sapiens [2]) | inhibition (Homo sapiens [3]) | inhibition [4] | inhibition [5] | pIC50 (MCF7) | pIC50 (HeLa) | pIC50 (A-431 [6]) | pIC50 (A549) | inhibition [7] | inhibition (Homo sapiens [8]) | pIC50 (NCI-H1975 [11]) | pIC50 [12] | pIC50 [13] | pIC50 [14] | Selectivity ratio (Homo sapiens [15]) | Selectivity ratio (Homo sapiens [16]) | Compound | pIC50 (L02) | inhibition at 10 µM (NCI-H1975 [9]) | inhibition at 1 µM (NCI-H1975 [10]) | further results
1 | 23.5% | 104% | 95.9% | 1.1% | 6% | 4.72 | 5.19 | 5.42 | 5.36 | 9.3% | 31.5% | 6.16 | 7.19 | 7.87 | < 6.00 | > 15 | > 73 | C=CC(=O)Nc1cccc(Oc2nc(Nc3cccc(C#N)c3)nc3ccsc23)c1 | < 4.30 | 79.5% | 44.3% | Activity (A-431 [17]): Active; viability at 0.2 µM (A-431 [18]): 83.4%; Activity (A-431 [19]): 3.29%; Activity (A-431 [20]): 12.66%; Activity (A-431 [21]): 0.63%; viability at 4 µM (A-431 [22]): 77.4%; Activity (A-431 [23]): 4.87%; Activity (A-431 [24]): 16.41%; Activity (A-431 [25]): 1.33%; viability at 8 µM (A-431 [26]): 78.3%; Activity (A-431 [27]): 3.54%; Activity (A-431 [28]): 17.17%; Activity (A-431 [29]): 0.97%; Activity (A-431 [30]): Active
2 | 24% | 104% | 94.8% | -0.2% | 0.5% | 4.72 | 4.79 | 5.32 | 5.36 | 9.7% | 31.6% | 6.38 | 7.12 | 7.82 | < 6.00 | > 13 | > 65 | C=CC(=O)Nc1cccc(Oc2nc(Nc3cccc(OC)c3)nc3ccsc23)c1 | 4.52 | 86.8% | 50.6% | –
3 | – | – | 98.1% | – | – | 5.16 | 5.03 | 5.28 | 5.37 | – | – | 6.28 | 7.32 | 7.90 | – | – | – | C=CC(=O)Nc1cccc(Oc2nc(Nc3ccc(N4CCN(C)CC4)cc3)nc3ccsc23)c1 [OLMUTINIB] | 4.59 | 74.6% | 6.08% | viability at 5 µM (A-431 [31]): 78.7%; Activity (A-431 [32]): 5.17%; Activity (A-431 [33]): 14.78%; Activity (A-431 [34]): 1.37%
